Molecular target: V1AR (AVP type 1A receptor) (Homo sapiens, UniProt P37288)
Experiment: DAGR FRET assay, block of AVP-induced DAG generation at […]
Type: cell-based

Sequence of V1AR (AVP type 1A receptor) (P37288 whole entry): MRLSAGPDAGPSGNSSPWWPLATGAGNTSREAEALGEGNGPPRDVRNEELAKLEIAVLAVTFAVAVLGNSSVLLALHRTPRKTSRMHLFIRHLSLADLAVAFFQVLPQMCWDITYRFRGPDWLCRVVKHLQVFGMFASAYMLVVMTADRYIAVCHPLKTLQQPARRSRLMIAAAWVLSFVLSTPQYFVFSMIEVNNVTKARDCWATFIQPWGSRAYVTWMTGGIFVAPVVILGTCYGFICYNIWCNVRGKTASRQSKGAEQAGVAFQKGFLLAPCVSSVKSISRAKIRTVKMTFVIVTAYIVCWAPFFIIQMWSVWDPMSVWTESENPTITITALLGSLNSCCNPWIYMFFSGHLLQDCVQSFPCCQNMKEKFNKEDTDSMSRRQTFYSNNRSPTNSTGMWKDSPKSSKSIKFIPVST

With `COc1ccc(S(=O)(=O)N2c3ccc(Cl)cc3[C@](O)(c3ccccc3Cl)[C@@H]2C(=O)N2CCC[C@H]2C(N)=O)cc1OC` [SR 49059] the “DAGR FRET assay, block of AVP-induced DAG generation at 10 μM” value was “it completely blocked AVP-dependent DAG production (Fig. 4E)”.

— PMC4229385 (Circulation, 2014)
